Source: patent publication US4665074A, “6-(polyfluoroalkoxyphenyl) pyridazinones, their compositions, synthesis and use” (Byk Gulden Lomberg Chemische Fabrik GmbH, priority 1984, dated 1987)

How the values were obtained:
[1] = tested on: acetylcholine-induced bronchospasm; assay: Protective action against acetylcholine-induced bronchospasm in conscious guinea pigs; assay type: in vivo, guinea pig; conditions: 100 μmol/kg p.o.; test 30 min after application; acetylcholine mist 0.06%
Method: Guinea pigs (250-350 g) in a closed Plexiglas cylinder (volume: 5 l) are exposed to a mist of acetylcholine (0.06% in 0.9% sodium chloride solution; Heyer Use 77 ultrasonic atomizer) twice at an interval of 20 minutes. The time from the start of atomization until there is onset of a marked struggle to breathe (in certain circumstances, a hypoxic convulsion in the lateral position) is measured and designated the latency perid. […] The test substance is administered orally by gavage (standard dose 100 μmol/kg, volume 1 ml of 4% strength methocel suspension in 0.9% strength sodium chloride solution/kg). After 30 minutes, the animals are again exposed to the mist of acetylcholine, and the latency periods are measured. A prolongation of the latency period to […] is regarded as a protective action.

[2] = tested on: electrically-stimulated left atrium of the rat; assay: Positive inotropic action in vitro on electrically-stimulated left atrium; assay type: cell-based; conditions: for -lg(EC40pot.) left atrium / EC40: EC40pot. in mol/l, 40% increase in contraction force vs initial value, 31°; for (EC40pot.)theophylline /(EC40pot.)substance: activity on left atrium relative to theophylline; for EC40: Rattus norvegicus, read-out: -lg(EC40pot.) left atrium (converted)
Method: Testing the positive inotropic action of the compounds in vitro on the electrically-stimulated left atrium of the rat is effected as follows:
Isometric contractions (HSE force sensor K-30; Watanabe recorder, Linear Corder Mark 5) of isolated left atria of rats (.male., 250-300 g) in an organ bath (10 ml, Tyrode nutrient solution, 31°, gassing with carbogen, initial tension of the organs 0.25 g) with electric stimulation (HSE stimulator, 7 V, 3 ms, 2 Hz) are recorded. After an equilibration period of 30 minutes, a dose-dependent increase in the contraction force is brought about by administration of the test substance in concentrations which increase semilogarithmically and cumulatively (for example 1×10^-6 +2×10^-6 +7×10^-6 +2×10^-5etc. mol/l), a constant inotropic response being waited for after each individual dose of the test substance before the next higher concentration is administered. The particular increase in the contraction force is expressed as a % of the initial value before administration of the substance. The concentration of the test substance which potentiates the contraction force of the atrium by 40% compared with the initial value (EC40pot.mol/l), expressed by the negative logarithm of (EC40pot.mol/l): -1 g(EC40pot.), serves as a measure of the cardiotonic activity.
(§1) The measure used for the organ-selective activity is the ratio between (EC40pot.) left atrium and (EC50)trachea. As a measure of the activity, the ratios between (EC50)trachea values and (EC40pot.)left atrium values of theophylline and the tested compound are given.

[3] = tested on: isolated, spontaneously contracted chain of tracheal rings of the guinea pig; assay: Bronchospasmolytic action in vitro on chain of tracheal rings (relaxation of spontaneous tonic contraction); assay type: cell-based; conditions: for -lg(EC50) trachea / EC50: EC50 in mol/l, 50% of maximum relaxation achieved by (-)isoprenaline 10^-6 mol/l, 37°; for (EC50)theophylline / (EC50)substance: activity on trachea relative to theophylline; for (EC40pot.) left atrium / (EC50)trachea: organ-selectivity ratio, rat left atrium vs guinea pig trachea; for EC50: Cavia porcellus, read-out: -lg(EC50) trachea (converted)
Method: To test the bronchospasmolytic action of the compounds in vitro on a chain of tracheal rings of the guinea pig, such tracheal rings are subjected to the following procedure:
Four parallel chains of tracheal rings (each consisting of 6 individual rings) of guinea pigs (.male. and .female., 430-600 g) in an organ bath [5 ml, Krebs-Henseleit solution with added phentolamine (10^-5 mol/l), 37°, initial tension of the organs 2 g, gassing with carbogen] develop a stable, spontaneous tonic contraction after about 20 to 30 minutes. […] Over a period of from 20 to 30 minutes, a complete dose/action curve of the test substance is thus obtained. The particular relaxation is expressed as a percentage fraction of the maximum relaxation achieved by administration of (-)isoprenaline (10^-6 mol/l).
as §1

Row | Compound | (EC50)theophylline / (EC50)substance [3] | -lg(EC50) trachea ([3]; listed as 2) | (EC50)theophylline / (EC50)substance ([3]; listed as 2) | EC50 [3] | Tripling of the latency period in N of 10 animals [1] | -lg(EC40pot.) left atrium [2] | (EC40pot.)theophylline /(EC40pot.)substance [2] | -lg(EC50) trachea [3] | (EC40pot.) left atrium / (EC50)trachea [3] | -lg(EC40pot.) left atrium ([2]; listed as 2) | (EC40pot.)theophylline /(EC40pot.)substance ([2]; listed as 2) | (EC40pot.) left atrium / (EC50)trachea ([3]; listed as 2) | EC40 [2]
1 | 6-(4-difluoromethoxy-3-methoxyphenyl)-3[2H]pyridazinone [Serial No. 5] | 85 |  |  |  | 7 of 10 animals | 5.76 | 240 | 5.80 | 1.1 |  |  |  | 
2 | O=c1ccc(-c2ccc(OC(F)(F)F)cc2)n[nH]1 [Serial No. 1, 6-(4-trifluoromethoxyphenyl)-3[2H]pyridazinone] | 5.4 | 5.11 | 17.4 |  |  | 4.0 | 4.2 | 4.60 | 4.0 | 4.66 | 19 | 2.8 | 
3 | O=c1ccc(-c2cccc(OC(F)(F)C(F)F)c2)n[nH]1 [Serial No. 2, 6-[3-(1,1,2,2-tetrafluoroethoxy)phenyl]-3[2H]pyridazinone] |  |  |  |  | 8 of 10 animals |  |  |  |  |  |  |  | 
4 | Cn1c(=O)c2[nH]cnc2n(C)c1=O [Theophylline, theophylline, reference compound] |  |  |  | 135 µM | 3 of 10 animals |  |  |  | 3.1 |  |  |  | 417 µM
5 | COc1cc(-c2ccc(=O)[nH]n2)ccc1OC(F)F [compound 5] | 110 |  |  | 1.23 µM | 9 of 10 animals |  | 469 |  | 0.7 |  |  |  | 0.871 µM

Further lines, with some results ahead:

Row | (EC50)theophylline / (EC50)substance [3] | -lg(EC50) trachea ([3]; listed as 2) | (EC50)theophylline / (EC50)substance ([3]; listed as 2) | EC50 [3] | Compound | Tripling of the latency period in N of 10 animals [1] | -lg(EC40pot.) left atrium [2] | (EC40pot.)theophylline /(EC40pot.)substance [2] | -lg(EC50) trachea [3] | (EC40pot.) left atrium / (EC50)trachea [3] | -lg(EC40pot.) left atrium ([2]; listed as 2) | (EC40pot.)theophylline /(EC40pot.)substance ([2]; listed as 2) | (EC40pot.) left atrium / (EC50)trachea ([3]; listed as 2) | EC40 [2]
6 | 13.2 |  |  | 9.12 µM | O=c1ccc(-c2ccc(OC(F)(F)C(F)F)cc2)n[nH]1 [Serial No. 3, 6-[4-(1,1,2,2-tetrafluoroethoxy)phenyl]-3[2H]pyridazinone] |  |  | 6.8 |  | 6.8 |  |  |  | 61.7 µM
7 | 11.2 |  |  | 12 µM | O=c1ccc(-c2ccc(OC(F)F)cc2)n[nH]1 [compound 6] | 8 of 10 animals |  | 12.9 |  | 2.7 |  |  |  | 32.4 µM
8 | 9.3 |  |  | 14.5 µM | O=c1ccc(-c2cccc(OC(F)F)c2)n[nH]1 [compound 7] | 9 of 10 animals |  |  |  | > 6.9 |  |  |  | > 100 µM
